{"source": "patent US11591311B2", "about": "“3-oxo-6-heteroaryl-2-phenyl-2,3-dihydropyridazine-4-carboxamides” (priority 2017, dated 2023)", "biological_target": "T1, AHR (Homo sapiens, UniProt P35869)", "T1 construct": "U87 glioblastoma cells (ATCC) endogenously expressing AHR; host or cells: U87 glioblastoma cells, stably transfected with DRE-firefly luciferase and renilla reporter constructs", "T1 sequence (P35869 11-848)": "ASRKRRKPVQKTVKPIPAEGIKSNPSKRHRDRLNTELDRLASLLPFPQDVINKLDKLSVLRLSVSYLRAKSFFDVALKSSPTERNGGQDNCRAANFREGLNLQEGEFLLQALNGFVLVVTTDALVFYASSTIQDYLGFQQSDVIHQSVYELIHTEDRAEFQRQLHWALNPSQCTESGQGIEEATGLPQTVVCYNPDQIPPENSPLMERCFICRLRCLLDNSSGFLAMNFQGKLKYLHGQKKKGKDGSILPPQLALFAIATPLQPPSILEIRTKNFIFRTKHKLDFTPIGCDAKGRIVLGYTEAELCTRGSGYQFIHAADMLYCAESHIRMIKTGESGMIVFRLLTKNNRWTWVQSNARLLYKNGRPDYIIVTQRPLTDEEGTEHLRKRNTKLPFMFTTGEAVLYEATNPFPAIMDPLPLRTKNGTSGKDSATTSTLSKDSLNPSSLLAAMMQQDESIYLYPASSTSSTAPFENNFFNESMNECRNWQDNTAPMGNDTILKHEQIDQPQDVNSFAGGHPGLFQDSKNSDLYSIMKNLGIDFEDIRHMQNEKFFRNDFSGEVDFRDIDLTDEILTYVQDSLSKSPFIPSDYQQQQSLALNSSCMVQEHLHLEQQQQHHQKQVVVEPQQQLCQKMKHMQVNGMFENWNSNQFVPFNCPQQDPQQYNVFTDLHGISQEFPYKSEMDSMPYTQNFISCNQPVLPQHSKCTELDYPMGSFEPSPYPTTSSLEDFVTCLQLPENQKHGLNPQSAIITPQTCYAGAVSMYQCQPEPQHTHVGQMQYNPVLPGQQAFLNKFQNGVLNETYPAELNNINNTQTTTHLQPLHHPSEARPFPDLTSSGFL", "assay": "In vitro assay 1: AHR-luc transactivation assay, antagonism in human cell line (U87 glioblastoma cells prestimulated with kynurenic acid)", "assay_type": "cell-based", "protocol": "Transactivation Assay in Human Cell Line (In Vitro Assays 1 and 2)\nTransactivation assays were carried out in U87 glioblastoma cells (ATCC) endogenously expressing AHR. In addition the cells were stably transfected with an AHR inducible firefly luciferase reporter gene construct that carried AHR-binding sites (DRE) in its promoter and a renilla reporter gene construct with constitutively active promoter. Kynurenic acid is an endogenous AHR activating ligand and was used to prestimulate test cells prior to testing the antagonistic properties of compounds.\nIn Vitro Assay 1: Antagonism in Human Cell Line\nCells in medium (tryptophan free RPMI, 1% FCS, 2 mM Glutamine) supplemented with 150 μM kynurenic acid were grown for 20 hours in absence (negative control) or presence of increasing concentrations of test compounds (typical dilutions: 72 pmol/L, 0.25 nmol/L, 0.89 nmol/L; 3.1 nmol/L, 11 nmol/L, 38 nmol/L, 130 nmol/L, 470 nmol/L, 1.6 μmol/L, 5.7 μmol/L and 20 μmol/L in duplicates). As positive inhibition control cells supplemented with 150 μM kynurenic acid were incubated in presence of 5 μM Staurosporin. Normalization was done by positive and negative controls.\nFirefly luciferase and Renilla activity was determined by the DualGlo Luciferase Assay System (Promega, #2920). Renilla activity was used to assess toxic effects of compounds."}
{"compound": "CC(C)(O)CNC(=O)c1cc(-c2ccc(C(F)F)nc2)nn(-c2cccc(F)c2)c1=O", "note": "[Example 34, 6-[6-(Difluoromethyl)pyridin-3-yl]-2-(3-fluorophenyl)-N-(2-hydroxy-2-methylpropyl)-3-oxo-2,3-dihydropyridazine-4-carboxamide]", "values": [{"measurement": "IC50", "result": 156, "unit": "nM"}]}
{"compound": "O=C(N[C@H]1COC[C@@H]1O)c1cc(-c2ccc(C(F)F)nc2)nn(-c2cccc(F)c2)c1=O", "note": "[Example 38, 6-[6-(Difluoromethyl)pyridin-3-yl]-2-(3-fluorophenyl)-N-[(3S,4R)-4-hydroxytetrahydrofuran-3-yl]-3-oxo-2,3-dihydropyridazine-4-carboxamide]", "values": [{"measurement": "IC50", "result": 370, "unit": "nM"}]}
{"compound": "O=C(N[C@@H]1CSC[C@@H]1O)c1cc(-c2ccc(C(F)(F)F)nc2)nn(-c2cccc(F)c2)c1=O", "note": "[Example 26, 2-(3-Fluorophenyl)-N-[(3S,4R)-4-hydroxytetrahydrothiophen-3-yl]-3-oxo-6-[6-(trifluoromethyl)pyridin-3-yl]-2,3-dihydropyridazine-4-carboxamide]", "values": [{"measurement": "IC50", "result": 5740, "unit": "nM"}]}
{"compound": "COc1ccc(-c2cc(C(=O)N[C@H](C)C(C)(C)O)c(=O)n(-c3cccc(F)c3)n2)cn1", "note": "[Example 20, 2-(3-Fluorophenyl)-N-[(2R)-3-hydroxy-3-methylbutan-2-yl]-6-(6-methoxypyridin-3-yl)-3-oxo-2,3-dihydropyridazine-4-carboxamide]", "values": [{"measurement": "IC50", "result": 509, "unit": "nM"}]}
{"compound": "C[C@@H](CO)NC(=O)c1cc(-c2ccc(C(F)(F)F)cn2)nn(-c2cc(F)cc(F)c2)c1=O", "note": "[Example 41, 2-(3,5-Difluorophenyl)-N-[(2S)-1-hydroxypropan-2-yl]-3-oxo-6-[5-(trifluoromethyl)pyridin-2-yl]-2,3-dihydropyridazine-4-carboxamide]", "values": [{"measurement": "IC50", "result": 96.5, "unit": "nM"}]}
{"compound": "C[C@@H](CO)NC(=O)c1cc(-c2ccc(Cl)cn2)nn(-c2cccc(F)c2)c1=O", "note": "[Example 24, 6-(5-Chloropyridin-2-yl)-2-(3-fluorophenyl)-N-[(2S)-1-hydroxypropan-2-yl]-3-oxo-2,3-dihydropyridazine-4-carboxamide]", "values": [{"measurement": "IC50", "result": 352, "unit": "nM"}]}
{"compound": "O=C(N[C@H](CO)C(F)(F)F)c1cc(-c2ccc(C(F)F)nc2)nn(-c2cccc(F)c2)c1=O", "note": "[Example 28, 6-[6-(Difluoromethyl)pyridin-3-yl]-2-(3-fluorophenyl)-3-oxo-N-[(2R)-1,1,1-trifluoro-3-hydroxypropan-2-yl]-2,3-dihydropyridazine-4-carboxamide]", "values": [{"measurement": "IC50", "result": 6.65, "unit": "nM"}]}
{"compound": "Cc1ccc(-c2cc(C(=O)N[C@@H](C)CO)c(=O)n(-c3cccc(F)c3)n2)cn1", "note": "[Example 23, 2-(3-Fluorophenyl)-N-[(2S)-1-hydroxypropan-2-yl]-6-(6-methylpyridin-3-yl)-3-oxo-2,3-dihydropyridazine-4-carboxamide]", "values": [{"measurement": "IC50", "result": 265, "unit": "nM"}]}
{"compound": "C[C@@H](CO)NC(=O)c1cc(-c2ccc(C(F)(F)F)cn2)nn(-c2cccc(F)c2)c1=O", "note": "[Example 25, 2-(3-Fluorophenyl)-N-[(2S)-1-hydroxypropan-2-yl]-3-oxo-6-[5-(trifluoromethyl)pyridin-2-yl]-2,3-dihydropyridazine-4-carboxamide]", "values": [{"measurement": "IC50", "result": 84.8, "unit": "nM"}]}
{"compound": "C[C@@H](CO)NC(=O)c1cc(-c2ccc(C(F)(F)F)nc2)nn(-c2ccc(F)c(F)c2)c1=O", "note": "[Example 3, 2-(3,4-Difluorophenyl)-N-[(2S)-1-hydroxypropan-2-yl]-3-oxo-6-[6-(trifluoromethyl)pyridin-3-yl]-2,3-dihydropyridazine-4-carboxamide]", "values": [{"measurement": "IC50", "result": 623, "unit": "nM"}]}
{"compound": "CC(C)(O)CNC(=O)c1cc(-c2cnc(C(F)(F)F)nc2)nn(-c2cccc(F)c2)c1=O", "note": "[Example 17, 2-(3-Fluorophenyl)-N-(2-hydroxy-2-methylpropyl)-3-oxo-6-[2-(trifluoromethyl)pyrimidin-5-yl]-2,3-dihydropyridazine-4-carboxamide]", "values": [{"measurement": "IC50", "result": 2030, "unit": "nM"}]}
{"compound": "Cc1ccc(-c2cc(C(=O)N[C@@H](C)CO)c(=O)n(-c3cccc(F)c3)n2)nc1", "note": "[Example 12, 2-(3-Fluorophenyl)-N-[(2S)-1-hydroxypropan-2-yl]-6-(5-methylpyridin-2-yl)-3-oxo-2,3-dihydropyridazine-4-carboxamide]", "values": [{"measurement": "IC50", "result": 1080, "unit": "nM"}]}
{"compound": "O=C(N[C@H]1COCC[C@@H]1O)c1cc(-c2ccc(C(F)F)nc2)nn(-c2cccc(F)c2)c1=O", "note": "[Example 37, 1,5-Anhydro-2,4-dideoxy-2-[({6-[6-(difluoromethyl)pyridin-3-yl]-2-(3-fluorophenyl)-3-oxo-2,3-dihydropyridazin-4-yl}carbonyl)amino]-L-threo-pentitol]", "values": [{"measurement": "IC50", "result": 268, "unit": "nM"}]}
{"compound": "O=C(N[C@H]1COCC[C@H]1O)c1cc(-c2ccc(C(F)F)nc2)nn(-c2cccc(F)c2)c1=O", "note": "[Example 35, 1,5-Anhydro-2,4-dideoxy-2-[({6-[6-(difluoromethyl)pyridin-3-yl]-2-(3-fluorophenyl)-3-oxo-2,3-dihydropyridazin-4-yl}carbonyl)amino]-D-erythro-pentitol]", "values": [{"measurement": "IC50", "result": 174, "unit": "nM"}]}
{"compound": "O=C(N[C@H](CO)C1CC1)c1cc(-c2ccc(C(F)F)nc2)nn(-c2cccc(F)c2)c1=O", "note": "[Example 29, N-[(1S)-1-Cyclopropyl-2-hydroxyethyl]-6-[6-(difluoromethyl)pyridin-3-yl]-2-(3-fluorophenyl)-3-oxo-2,3-dihydropyridazine-4-carboxamide]", "values": [{"measurement": "IC50", "result": 15.1, "unit": "nM"}]}
{"compound": "C[C@H](NC(=O)c1cc(-c2cnc(C(F)(F)F)nc2)nn(-c2cccc(F)c2)c1=O)C(C)(C)O", "note": "[Example 14, 2-(3-Fluorophenyl)-N-[(2S)-3-hydroxy-3-methylbutan-2-yl]-3-oxo-6-[2-(trifluoromethyl)pyrimidin-5-yl]-2,3-dihydropyridazine-4-carboxamide]", "values": [{"measurement": "IC50", "result": 217, "unit": "nM"}]}
{"compound": "O=C(N[C@H]1COC[C@H]1O)c1cc(-c2ccc(C(F)F)nc2)nn(-c2cccc(F)c2)c1=O", "note": "[Example 33, 6-[6-(Difluoromethyl)pyridin-3-yl]-2-(3-fluorophenyl)-N-[(3S,4S)-4-hydroxyoxolan-3-yl]-3-oxo-2,3-dihydropyridazine-4-carboxamide]", "values": [{"measurement": "IC50", "result": 75.1, "unit": "nM"}]}
{"compound": "O=C(NC(CO)C1CCOC1)c1cc(-c2ccc(C(F)F)nc2)nn(-c2cccc(F)c2)c1=O", "note": "(stereo not drawn) [Example 36, 6-[6-(Difluoromethyl)pyridin-3-yl]-2-(3-fluorophenyl)-N-[2-hydroxy-1-(tetrahydrofuran-3-yl)ethyl]-3-oxo-2,3-dihydropyridazine-4-carboxamide]", "values": [{"measurement": "IC50", "result": 196, "unit": "nM"}]}
{"compound": "O=C(N[C@H]1COCC[C@H]1O)c1cc(-c2ccc(C(F)(F)F)nc2)nn(-c2cccc(F)c2)c1=O", "note": "[Example 40, 1,5-anhydro-2,4-dideoxy-2-[({2-(3-fluorophenyl)-3-oxo-6-[6-(trifluoromethyl)pyridin-3-yl]-2,3-dihydropyridazin-4-yl}carbonyl)amino]-D-erythro-pentitol]", "values": [{"measurement": "IC50", "result": 32.8, "unit": "nM"}]}
{"compound": "N#C[C@@H](CO)NC(=O)c1cc(-c2ccc(C(F)(F)F)nc2)nn(-c2cccc(F)c2)c1=O", "note": "[Example 39, N-[(1S)-1-Cyano-2-hydroxyethyl]-2-(3-fluorophenyl)-3-oxo-6-[6-(trifluoromethyl)pyridin-3-yl]-2,3-dihydropyridazine-4-carboxamide]", "values": [{"measurement": "IC50", "result": 22.8, "unit": "nM"}]}
{"compound": "C[C@H](O)[C@H](C)NC(=O)c1cc(-c2cnc(C(F)(F)F)nc2)nn(-c2cccc(F)c2)c1=O", "note": "[Example 16, 2-(3-Fluorophenyl)-N-[(2S,3S)-3-hydroxybutan-2-yl]-3-oxo-6-[2-(trifluoromethyl)pyrimidin-5-yl]-2,3-dihydropyridazine-4-carboxamide]", "values": [{"measurement": "IC50", "result": 169, "unit": "nM"}]}
